# Laboratory results reported in US8753570B2, “Structure, synthesis, and applications for oligo phenylene ethynylenes” (STC.UNM, priority 2008, dated 2014).
# Assays:
# [1] = Fluorescence quantum yields and fluorescence lifetimes in water and methanol; format: physicochemical; settings: for φf in CH3OH / φf in H2O / τ (ns): Table 2; for τ (ns): fluorescence lifetime; for fluorescence quantum efficiency: in water, quinine sulfate standard; for Φf / τf (ns): Table 1
# Excerpt: (§1) While the synthetic steps are all straight-forward, those involving conversion of the diiodobenzene to 4-(4-iodophenyl)-2-methyl-3-butyn-2-ol occur with lower yields and the desired products must be separated from structurally similar byproducts. The alkylamino groups were attached in an early step but converted to the quaternary ammonium derivatives as the last step of the synthesis. The intermediates and final products were characterized by mass spectrometry and proton and carbon NMR. […]
# The absorption and fluorescence in methanol occur at very similar wavelengths. In both solvents there is no concentration dependence of the spectra in the micromolar range and it seems likely that in both solvents the N-OPE are monomeric. […] Fluorescent lifetimes in water are correspondingly shorter than in methanol.
# Three symmetrical molecules, S-OPE-1 (H), S-OPE-1 (COOEt) and S-OPE-1 (COO—) show similar two-banded absorption spectra in water and methanol.
# (§2) The spectra are concentration independent in the micromolar concentration range and there is a small red shift in the series: S-OPE-1 (H), N-OPE-1=S-OPE-1 (COO—), S-OPE-1 (COOEt). […] Furthermore, we have also synthesized and carried out studies of S-OPE-1 (x) where x=NH2, COCH3, both of these compounds show similar absorption spectra to that of S-OPE-1 (COOEt). The fluorescence of all four compounds shown in Table 2 is strong in methanol and there is little variation in fluorescence efficiency among the different substituted derivatives. However there is a significant variation in the fluorescence efficiencies in aqueous solution ranging from 0.02 for S-OPE-1 (COOEt) to 0.80 for S-OPE-1 (H). […] Clearly the ester groups in N-OPE-1 and S-OPE-1 (COOEt) must play a major role in a solvent-dependent process which deactivates the excited singlet of the oligomers in water. Nanosecond transient absorption spectroscopy was carried out on the OPEs in order to monitor the triplet states. […] The transient lifetimes and spectra are consistent with a triplet state assignment. The 1max of triplet-triplet absorption shifts from 518 nm to 569 nm following the extent of conjugation: S-OPE1-H (518 nm), N-OPE-1 (533 nm), S-OPE-1 (COO—) (557 nm), then S-OPE-1 (COOEt) (569 nm). The apparent triplet yields decrease in the order of S-OPE-1 (H)>S-OPE-1 (COO—)>>N-OPE-1>>S-OPE-1 (COOEt). The triplet lifetimes follow a similar trend as the triplet yield (Table 2).
# [2] = Nanosecond transient absorption spectroscopy (triplet state lifetime); format: physicochemical; settings: aqueous solution
# Excerpt: as §2
# [3] = tested on: Pseudomonas aeruginosa Strain PAO1; assay: Dark and light activated biocidal activity; format: cell-based; settings: for biocidal activity: in solution and attached to surfaces; for light activated biocidal activity: short term irradiation with near ultraviolet light
# Excerpt: The OPEs described herein have been synthesized and studied as dark and light activated biocides towards a Gram negative bacterium, Pseudomonas aeruginosa Strain PAO1. […] N-OPE-1 has been attached to surfaces by covalent linkage. This has been accomplished for both micron sized glass beads and glass slides.
# [4] = Solubility in water and polar organic solvents; format: physicochemical; settings: water and polar organic solvents such as methanol
# Excerpt: as §1
# [5] = Self-assembly / complex formation on carboxymethylcellulose (absorption, fluorescence); format: binding; settings: two-state model, dimer assumed; estimated from absorbances
# Excerpt: N-OPE:CMC complexes can be formed by adding small aliquots of CMC to aqueous solutions containing the N-OPE compound. […] [N-OPE-1]=1.5×10^−5M. […] [N-OPE-2]=1.5×10^−5 and [CMC]=0-4.2×10^−5M. Both excitation and emission slits are 2.5 nm. Excitation wavelength for N-OPE-1 is 355 nm and for N-OPE-2 is 375 nm. For both N-OPEs there are several isosbestic points in the absorption spectra as the two bands in the absorption for water alone are replaced by a spectrum of the N-OPE:CMC having two bands at longer wavelength. For both N-OPEs the fluorescence also undergoes a red shift and increase in intensity as aliquots of CMC are added, finally leveling off at moderate concentrations (greater than 1 mM) of CMC. […]
# Binding constants (assuming that an N-OPE dimer is formed in each case) can be estimated from a determination of the individual absorbances of the two species following a treatment for a similar two-state system developed by Pasternack and co-workers. […]
# Self-assembly is not limited solely to the non-symmetrical N-OPE compounds. […] The changes that occur for S-OPE-1 (H), N-OPE-1 and S-OPE-1 (COOEt) (sharp, red shifted absorption spectra, isosbestic points maintained throughout the CMC addition and red-shifted fluorescence) are consistent with an extension of effective conjugation for the oligomers on the carboxylate decorated surface of the CMC.
# [6] = suspensions of Pseudomonas, much slower than light-activated
# [7] = exposed to bacteria in the dark, up to one hour
Structure (SMILES),φf in CH3OH [1],φf in H2O [1],τ (ns) ([1]; column after φf in CH3OH),τ (ns) ([1]; column after φf in H2O),τTA (μs) [2] [μs],"dark biocidal activity [3, 7]",biocidal activity [3],light activated biocidal activity [3],also measured
C[N+](C)(C)CCCOc1cc(C#Cc2ccc(C#Cc3cc(OCCC[N+](C)(C)C)c(C#Cc4ccccc4)cc3OCCC[N+](C)(C)C)cc2)c(OCCC[N+](C)(C)C)cc1C#Cc1ccccc1.[Cl-].[Cl-].[Cl-].[Cl-] [S-OPE-2 (x=H)],–,–,–,–,–,–,–,–,"light-activated biocidal activity (rank) ([3]; suspensions of Pseudomonas): S-OPE-1 (x=H)<S-OPE-2 (x=H); dark biocidal activity [3, 6]: observed"
CCOC(=O)c1ccc(C#Cc2cc(OCCC[N+](C)(C)C)c(C#Cc3ccc(C#Cc4cc(OCCC[N+](C)(C)C)c(C#Cc5ccc(C#Cc6cc(OCCC[N+](C)(C)C)c(C#Cc7ccccc7)cc6OCCC[N+](C)(C)C)cc5)cc4OCCC[N+](C)(C)C)cc3)cc2OCCC[N+](C)(C)C)cc1.[Cl-].[Cl-].[Cl-].[Cl-].[Cl-].[Cl-] [N-OPE-3],–,–,–,–,–,active against bacteria both in the dark and in the light,active biocides both in solution and attached to surfaces,active against bacteria both in the dark and in the light,–
CCOC(=O)c1ccc(C#Cc2cc(OCCC[N+](C)(C)C)c(C#Cc3ccc(C#Cc4cc(OCCC[N+](C)(C)C)c(C#Cc5ccccc5)cc4OCCC[N+](C)(C)C)cc3)cc2OCCC[N+](C)(C)C)cc1.[Cl-].[Cl-].[Cl-].[Cl-] [N-OPE-2],–,–,–,–,–,active against bacteria both in the dark and in the light,active biocides both in solution and attached to surfaces,active against bacteria both in the dark and in the light,fluorescence quantum efficiency [1]: over 1%; Φf ([1]; solvent H2O): 0.012; τf (ns) ([1]; solvent H2O): 0.37 ns; Φf ([1]; solvent Methanol): 0.68; τf (ns) ([1]; solvent Methanol): 0.92 ns; solubility [4]: readily soluble in water and polar organic solvents such as methanol
C[N+](C)(C)CCCOc1cc(C#Cc2ccc(C#Cc3cc(OCCC[N+](C)(C)C)c(C#Cc4ccc(C#Cc5cc(OCCC[N+](C)(C)C)c(C#Cc6ccccc6)cc5OCCC[N+](C)(C)C)cc4)cc3OCCC[N+](C)(C)C)cc2)c(OCCC[N+](C)(C)C)cc1C#Cc1ccccc1.[Cl-].[Cl-].[Cl-].[Cl-].[Cl-].[Cl-] [S-OPE-3 (x=H)],–,–,–,–,–,–,–,–,"dark biocidal activity [3, 6]: observed"

# Further lines, with some results ahead:
φf in CH3OH [1],φf in H2O [1],τ (ns) ([1]; column after φf in CH3OH),τ (ns) ([1]; column after φf in H2O),τTA (μs) [2] [μs],Structure (SMILES),"dark biocidal activity [3, 7]",biocidal activity [3],light activated biocidal activity [3],also measured
0.74,0.70,1.3,1.5,136,C[N+](C)(C)CCCOc1cc(C#Cc2ccc(C(=O)[O-])cc2)c(OCCC[N+](C)(C)C)cc1C#Cc1ccc(C(=O)[O-])cc1 [S-OPE-1 (COO—)],–,–,–,–
0.75,0.023,1.4,1.0,77,CCOC(=O)c1ccc(C#Cc2cc(OCCC[N+](C)(C)C)c(C#Cc3ccc(C(=O)OCC)cc3)cc2OCCC[N+](C)(C)C)cc1.[Cl-].[Cl-] [S-OPE-1 (COOEt)],–,–,–,fluorescence efficiency in aqueous solution [1]: 0.02
0.82,0.80,1.4,1.6,216,C[N+](C)(C)CCCOc1cc(C#Cc2ccccc2)c(OCCC[N+](C)(C)C)cc1C#Cc1ccccc1.[Cl-].[Cl-] [S-OPE-1 (H)],–,–,–,fluorescence efficiency in aqueous solution [1]: 0.80; light-activated biocidal activity (rank) ([3]; suspensions of Pseudomonas): S-OPE-1 (x=H)<S-OPE-2 (x=H)
0.68,0.15,1.6,1.5,107,CCOC(=O)c1ccc(C#Cc2cc(OCCC[N+](C)(C)C)c(C#Cc3ccccc3)cc2OCCC[N+](C)(C)C)cc1.[Cl-].[Cl-] [N-OPE-1],relatively inactive,active biocides both in solution and attached to surfaces,active as a biocide,"fluorescence quantum efficiency [1]: ~15%; Φf ([1]; solvent H2O): 0.147; τf (ns) ([1]; solvent H2O): 0.78 ns; Φf ([1]; solvent Methanol): 0.68; τf (ns) ([1]; solvent Methanol): 1.57 ns; binding constant K, CMC:(N-OPE)2 [5]: less accurate and slightly lower; solubility [4]: readily soluble in water and polar organic solvents such as methanol"
